Measured values as given in the kinase profiling compilation of Christmann-Franck et al. (2016).
Where “and” joins values, the source holds several entries; their conditions need not be identical. Equal entries are not always repeated.

Legend:
Test in all cases: radiometric filter-binding kinase assay, Kinase HotSpot
Settings in all cases: compound 0.5 µM; ATP 10 µM
AURKA (human) = AURKA (human) (UniProt O14965)
CAMK1D (human) = CAMK1D (human) (UniProt Q8IU85)
CAMK2B (human) = CAMK2B (human) (UniProt Q13554)
CDK2 CCNE1 (human) = CDK2 CCNE1 (human) (UniProt P24941+P24864)
CDK6 CCND1 (human) = CDK6 CCND1 (human) (UniProt Q00534+P24385)
CDK7 CCNH MNAT1 (human) = CDK7 CCNH MNAT1 (human) (UniProt P50613+P51948+P51946)
CDK9 CCNK (human) = CDK9 CCNK (human) (UniProt O75909+P50750)
CLK2 (human) = CLK2 (human) (UniProt P49760)
DAPK1 (human) = DAPK1 (human) (UniProt P53355)
EPHA1 (human) = EPHA1 (human) (UniProt P21709)
EPHB2 (human) = EPHB2 (human) (UniProt P29323)
GSK3A (human) = GSK3A (human) (UniProt P49840)
INSRR (human) = INSRR (human) (UniProt P14616)
MAP4K4 (human) = MAP4K4 (human) (UniProt O95819)
MAPK10 (human) = MAPK10 (human) (UniProt P53779)
MAPKAPK5 (human) = MAPKAPK5 (human) (UniProt Q8IW41)
MET (human) = MET (human) (UniProt P08581)
MKNK2 (human) = MKNK2 (human) (UniProt Q9HBH9)
MLTK (human) = MLTK (human) (UniProt Q9NYL2)
MST4 (human) = MST4 (human) (UniProt Q9P289)
MYLK (human) = MYLK (human) (UniProt Q15746)
MYLK2 (human) = MYLK2 (human) (UniProt Q9H1R3)
NEK11 (human) = NEK11 (human) (UniProt Q8NG66)
NEK9 (human) = NEK9 (human) (UniProt Q8TD19)
PAK6 (human) = PAK6 (human) (UniProt Q9NQU5)
PIM1 (human) = PIM1 (human) (UniProt P11309)
PLK2 (human) = PLK2 (human) (UniProt Q9NYY3)
PRKACA (human) = PRKACA (human) (UniProt P17612)
PRKCD (human) = PRKCD (human) (UniProt Q05655)
PRKD1 (human) = PRKD1 (human) (UniProt Q15139)
PRKG1 (human) = PRKG1 (human) (UniProt Q13976)
ROCK1 (human) = ROCK1 (human) (UniProt Q13464)
RPS6KB2 (human) = RPS6KB2 (human) (UniProt Q9UBS0)
SGK2 (human) = SGK2 (human) (UniProt Q9HBY8)
STK33 (human) = STK33 (human) (UniProt Q9BYT3)
STK39 (human) = STK39 (human) (UniProt Q9UEW8)
SYK (human) = SYK (human) (UniProt P43405)
ULK2 (human) = ULK2 (human) (UniProt Q8IYT8)
WNK2 (human) = WNK2 (human) (UniProt Q9Y3S1)
FES (human) = FES (human) (UniProt P07332)
EPHB4 (human) = EPHB4 (human) (UniProt P54760)
MINK1 (human) = MINK1 (human) (UniProt Q8N4C8)

CAMK1D (human), sequence (Q8IU85 whole entry, looked up): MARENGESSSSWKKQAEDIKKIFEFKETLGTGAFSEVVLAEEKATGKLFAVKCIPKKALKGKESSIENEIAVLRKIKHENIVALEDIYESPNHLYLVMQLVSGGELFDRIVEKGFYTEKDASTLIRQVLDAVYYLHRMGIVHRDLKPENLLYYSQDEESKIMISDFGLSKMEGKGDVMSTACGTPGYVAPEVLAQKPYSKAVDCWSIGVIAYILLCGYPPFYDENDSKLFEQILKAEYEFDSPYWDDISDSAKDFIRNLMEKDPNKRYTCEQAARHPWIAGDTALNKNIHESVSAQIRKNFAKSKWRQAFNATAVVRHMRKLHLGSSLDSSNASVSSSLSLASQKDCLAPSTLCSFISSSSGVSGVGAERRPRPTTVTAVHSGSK
CAMK2B (human), sequence (Q13554 whole entry, looked up): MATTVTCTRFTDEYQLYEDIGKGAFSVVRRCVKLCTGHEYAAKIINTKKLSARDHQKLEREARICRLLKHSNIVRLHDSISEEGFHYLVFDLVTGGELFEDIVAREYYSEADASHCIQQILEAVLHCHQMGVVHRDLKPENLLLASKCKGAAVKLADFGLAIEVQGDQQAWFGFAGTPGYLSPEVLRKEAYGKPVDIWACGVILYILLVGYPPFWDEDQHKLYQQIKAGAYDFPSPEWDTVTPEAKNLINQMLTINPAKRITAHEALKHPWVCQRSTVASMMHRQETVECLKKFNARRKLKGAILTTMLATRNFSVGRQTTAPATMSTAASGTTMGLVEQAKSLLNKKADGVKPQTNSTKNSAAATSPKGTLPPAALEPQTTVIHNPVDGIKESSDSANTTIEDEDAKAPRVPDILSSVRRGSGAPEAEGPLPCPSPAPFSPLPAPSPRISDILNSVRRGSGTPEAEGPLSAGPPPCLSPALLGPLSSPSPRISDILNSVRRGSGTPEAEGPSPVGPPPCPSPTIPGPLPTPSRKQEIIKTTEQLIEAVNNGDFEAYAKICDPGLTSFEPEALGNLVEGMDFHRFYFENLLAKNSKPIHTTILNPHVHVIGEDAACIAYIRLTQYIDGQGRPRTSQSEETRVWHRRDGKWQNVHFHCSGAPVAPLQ
CDK2 CCNE1 (human), sequence (P24864 whole entry, looked up, other chains not shown): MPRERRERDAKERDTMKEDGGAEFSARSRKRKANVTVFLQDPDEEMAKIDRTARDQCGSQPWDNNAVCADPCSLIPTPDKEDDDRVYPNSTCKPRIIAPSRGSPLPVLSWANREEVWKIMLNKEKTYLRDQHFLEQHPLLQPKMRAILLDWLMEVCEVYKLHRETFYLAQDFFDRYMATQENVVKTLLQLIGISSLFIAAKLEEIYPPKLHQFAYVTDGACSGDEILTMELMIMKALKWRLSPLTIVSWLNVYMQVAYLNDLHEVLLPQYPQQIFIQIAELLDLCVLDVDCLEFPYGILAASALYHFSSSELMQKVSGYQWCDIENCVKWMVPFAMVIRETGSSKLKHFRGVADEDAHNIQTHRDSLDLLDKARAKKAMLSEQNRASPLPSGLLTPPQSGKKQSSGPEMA
SGK2 (human), sequence (Q9HBY8 whole entry, looked up): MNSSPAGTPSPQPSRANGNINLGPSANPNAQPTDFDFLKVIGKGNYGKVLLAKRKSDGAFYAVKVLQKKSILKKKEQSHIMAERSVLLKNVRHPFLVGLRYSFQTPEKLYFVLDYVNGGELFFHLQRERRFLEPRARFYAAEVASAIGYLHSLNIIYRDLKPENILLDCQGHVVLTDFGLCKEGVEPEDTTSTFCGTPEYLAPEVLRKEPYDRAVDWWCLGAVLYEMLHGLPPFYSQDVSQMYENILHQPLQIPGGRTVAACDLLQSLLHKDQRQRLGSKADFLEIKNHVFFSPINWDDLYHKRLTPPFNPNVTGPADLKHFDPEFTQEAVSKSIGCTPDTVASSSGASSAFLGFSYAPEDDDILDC
PRKD1 (human), sequence (Q15139 whole entry, looked up): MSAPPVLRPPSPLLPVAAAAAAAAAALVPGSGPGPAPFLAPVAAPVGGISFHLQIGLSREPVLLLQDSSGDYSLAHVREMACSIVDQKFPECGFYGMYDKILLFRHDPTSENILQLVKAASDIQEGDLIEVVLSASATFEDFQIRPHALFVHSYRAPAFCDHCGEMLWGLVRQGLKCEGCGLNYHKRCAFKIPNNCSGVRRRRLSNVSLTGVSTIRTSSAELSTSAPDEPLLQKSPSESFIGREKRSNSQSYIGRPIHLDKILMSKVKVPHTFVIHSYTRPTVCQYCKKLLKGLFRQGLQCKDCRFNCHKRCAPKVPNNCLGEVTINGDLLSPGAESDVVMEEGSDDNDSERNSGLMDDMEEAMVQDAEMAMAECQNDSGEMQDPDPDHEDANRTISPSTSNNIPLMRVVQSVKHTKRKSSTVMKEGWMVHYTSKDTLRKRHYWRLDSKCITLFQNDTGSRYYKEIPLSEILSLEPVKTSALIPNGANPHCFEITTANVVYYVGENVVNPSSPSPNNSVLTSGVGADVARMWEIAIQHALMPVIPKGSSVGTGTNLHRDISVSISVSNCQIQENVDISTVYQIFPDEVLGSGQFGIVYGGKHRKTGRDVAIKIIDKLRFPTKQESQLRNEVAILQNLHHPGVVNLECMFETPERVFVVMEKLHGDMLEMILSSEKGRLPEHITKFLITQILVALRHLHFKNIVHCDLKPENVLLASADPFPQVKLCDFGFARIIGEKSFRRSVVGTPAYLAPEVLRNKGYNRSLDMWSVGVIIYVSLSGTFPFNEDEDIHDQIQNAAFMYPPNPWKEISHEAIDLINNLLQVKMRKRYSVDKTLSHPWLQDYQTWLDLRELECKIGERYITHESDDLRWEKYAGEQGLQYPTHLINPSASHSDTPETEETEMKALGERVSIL
MET (human), sequence (P08581 whole entry, looked up): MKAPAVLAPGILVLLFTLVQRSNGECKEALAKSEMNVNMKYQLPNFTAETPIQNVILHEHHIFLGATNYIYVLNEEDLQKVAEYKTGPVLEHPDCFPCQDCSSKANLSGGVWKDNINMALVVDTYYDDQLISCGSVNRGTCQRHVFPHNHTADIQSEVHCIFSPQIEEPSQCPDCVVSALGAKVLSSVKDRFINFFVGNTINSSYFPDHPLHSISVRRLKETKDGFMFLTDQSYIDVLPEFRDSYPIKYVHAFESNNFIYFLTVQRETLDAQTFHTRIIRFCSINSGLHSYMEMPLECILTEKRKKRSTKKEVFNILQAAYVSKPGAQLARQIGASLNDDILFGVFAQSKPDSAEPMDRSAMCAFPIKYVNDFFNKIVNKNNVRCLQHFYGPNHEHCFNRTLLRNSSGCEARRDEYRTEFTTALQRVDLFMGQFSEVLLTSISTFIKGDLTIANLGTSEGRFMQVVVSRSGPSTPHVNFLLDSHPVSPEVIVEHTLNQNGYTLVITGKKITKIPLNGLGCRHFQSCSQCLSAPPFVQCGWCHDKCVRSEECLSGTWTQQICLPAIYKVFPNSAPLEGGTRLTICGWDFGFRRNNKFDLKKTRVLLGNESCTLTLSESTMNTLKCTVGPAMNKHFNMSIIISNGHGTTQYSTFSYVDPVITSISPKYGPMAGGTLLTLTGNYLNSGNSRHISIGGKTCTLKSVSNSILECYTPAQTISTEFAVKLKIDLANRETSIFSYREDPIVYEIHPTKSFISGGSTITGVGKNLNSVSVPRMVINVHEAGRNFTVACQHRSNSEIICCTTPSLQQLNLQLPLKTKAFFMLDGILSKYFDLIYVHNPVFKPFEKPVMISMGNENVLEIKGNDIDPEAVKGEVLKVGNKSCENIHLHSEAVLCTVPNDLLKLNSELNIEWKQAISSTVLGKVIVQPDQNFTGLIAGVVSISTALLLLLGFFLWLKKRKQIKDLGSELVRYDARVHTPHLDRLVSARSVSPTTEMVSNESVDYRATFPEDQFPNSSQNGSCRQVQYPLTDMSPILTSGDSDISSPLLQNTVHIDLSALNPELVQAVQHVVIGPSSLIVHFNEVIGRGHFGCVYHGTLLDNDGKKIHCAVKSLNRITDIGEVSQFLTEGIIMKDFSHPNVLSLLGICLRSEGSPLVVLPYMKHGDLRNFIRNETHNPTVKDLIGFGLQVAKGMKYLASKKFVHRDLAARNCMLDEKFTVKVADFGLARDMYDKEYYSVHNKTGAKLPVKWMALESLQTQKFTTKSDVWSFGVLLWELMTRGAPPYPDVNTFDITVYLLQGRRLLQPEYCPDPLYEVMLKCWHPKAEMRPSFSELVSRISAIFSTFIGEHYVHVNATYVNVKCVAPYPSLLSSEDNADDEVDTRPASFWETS
MAPKAPK5 (human), sequence (Q8IW41 whole entry, looked up): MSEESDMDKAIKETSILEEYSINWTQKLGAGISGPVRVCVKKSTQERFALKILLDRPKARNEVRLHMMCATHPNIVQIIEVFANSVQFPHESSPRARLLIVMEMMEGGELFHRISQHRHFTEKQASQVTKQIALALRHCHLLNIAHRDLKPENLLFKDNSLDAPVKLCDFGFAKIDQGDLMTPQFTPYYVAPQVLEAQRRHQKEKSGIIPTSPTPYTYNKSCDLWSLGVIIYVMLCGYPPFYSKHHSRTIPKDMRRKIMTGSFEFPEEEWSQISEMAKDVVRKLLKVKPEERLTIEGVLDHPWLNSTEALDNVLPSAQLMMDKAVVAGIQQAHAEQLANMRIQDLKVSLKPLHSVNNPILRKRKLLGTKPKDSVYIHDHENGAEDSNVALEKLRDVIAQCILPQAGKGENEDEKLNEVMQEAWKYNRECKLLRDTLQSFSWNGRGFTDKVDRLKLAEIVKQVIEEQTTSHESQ
MST4 (human), sequence (Q9P289 whole entry, looked up): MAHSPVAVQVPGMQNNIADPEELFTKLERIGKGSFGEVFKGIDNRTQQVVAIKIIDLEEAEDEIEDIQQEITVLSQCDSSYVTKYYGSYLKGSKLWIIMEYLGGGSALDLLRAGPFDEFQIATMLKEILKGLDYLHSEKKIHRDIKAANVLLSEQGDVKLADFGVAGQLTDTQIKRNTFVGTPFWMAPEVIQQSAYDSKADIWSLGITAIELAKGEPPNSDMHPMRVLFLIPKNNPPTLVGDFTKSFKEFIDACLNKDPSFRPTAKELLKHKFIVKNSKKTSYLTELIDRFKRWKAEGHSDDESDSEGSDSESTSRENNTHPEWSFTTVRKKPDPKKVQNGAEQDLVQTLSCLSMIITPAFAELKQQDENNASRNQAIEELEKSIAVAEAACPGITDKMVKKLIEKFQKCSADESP

Row | Structure (SMILES) | residual activity (AURKA (human)) | residual activity (CAMK2B (human)) | residual activity (CDK2 CCNE1 (human)) | residual activity (CDK6 CCND1 (human)) | residual activity (CDK7 CCNH MNAT1 (human)) | residual activity (CDK9 CCNK (human)) | residual activity (CLK2 (human)) | residual activity (DAPK1 (human)) | residual activity (EPHA1 (human)) | residual activity (EPHB2 (human)) | residual activity (GSK3A (human)) | residual activity (INSRR (human)) | residual activity (MAPKAPK5 (human)) | residual activity (MLTK (human)) | residual activity (MST4 (human)) | residual activity (NEK11 (human)) | residual activity (NEK9 (human)) | residual activity (PAK6 (human)) | residual activity (PIM1 (human)) | residual activity (PLK2 (human)) | other results
1 | COc1cc2ncnc(Nc3ccc(F)c(Cl)c3)c2cc1OCCCN1CCOCC1 | 95.3% | 95.4% | 101% | 98.7% | 105% | 99.3% | 94.8% | 109% | 87.4% | 87.7% | 99.7% | 112% | 92.7% | 96.2% | 106% | 109% | 99.3% | 105% | 86.4% | 100% | residual activity (CAMK1D (human)): 88.6%; residual activity (MAP4K4 (human)): 97.8%; residual activity (MAPK10 (human)): 102%; residual activity (MET (human)): 92.4%; residual activity (MKNK2 (human)): 54.1%; residual activity (MYLK (human)): 89.7%; residual activity (MYLK2 (human)): 99.2%; residual activity (PRKACA (human)): 96.3%; residual activity (PRKCD (human)): 106%; residual activity (PRKD1 (human)): 85.4%; residual activity (PRKG1 (human)): 103% and 87.5%; residual activity (ROCK1 (human)): 106%; residual activity (RPS6KB2 (human)): 101%; residual activity (SGK2 (human)): 117%; residual activity (STK33 (human)): 90.4%; residual activity (STK39 (human)): 93.5%; residual activity (SYK (human)): 104%; residual activity (ULK2 (human)): 104%; residual activity (WNK2 (human)): 97.2%
2 | C#Cc1cccc(Nc2ncnc3cc(OCCOC)c(OCCOC)cc23)c1 | 75.3% | 93.1% | 96.5% | 98.7% | 107% | 102% | 93.4% | 103% | 94.5% | 95.1% | 99.3% | 111% | 89.7% | 92.2% | 106% | 114% | 99.5% | 104% | 97% | 104% | residual activity (CAMK1D (human)): 98.8%; residual activity (FES (human)): 105%; residual activity (PRKACA (human)): 93.4%; residual activity (PRKCD (human)): 104%; residual activity (PRKD1 (human)): 94.8%; residual activity (PRKG1 (human)): 85.6% and 93.5%; residual activity (ROCK1 (human)): 107%; residual activity (RPS6KB2 (human)): 103%; residual activity (SGK2 (human)): 107%; residual activity (STK33 (human)): 90.8%; residual activity (STK39 (human)): 97%; residual activity (ULK2 (human)): 98.7%
3 | CS(=O)c1ccc(-c2nc(-c3ccc(F)cc3)c(-c3ccncc3)[nH]2)cc1 (stereo unspecified) | 99.5% | 97.6% | 93.1% | 100% | 96.8% | 98.6% | 108% | 90.3% | 97% | 108% | 94.1% | 100% | 92.5% | 100% | 96.8% | 81.3% | 99.1% | 76.7% | 103% | 95.6% | residual activity (CAMK1D (human)): 105%; residual activity (EPHB4 (human)): 91.1%; residual activity (FES (human)): 97.3%; residual activity (MAPK10 (human)): 114%; residual activity (MET (human)): 103%; residual activity (MINK1 (human)): 107%; residual activity (MKNK2 (human)): 94.4%; residual activity (MYLK (human)): 101%; residual activity (MYLK2 (human)): 99.9%; residual activity (PRKACA (human)): 98.9%; residual activity (PRKCD (human)): 107%; residual activity (PRKG1 (human)): 88.8% and 94.3%; residual activity (ROCK1 (human)): 102%; residual activity (RPS6KB2 (human)): 97.2%; residual activity (SGK2 (human)): 106%; residual activity (STK33 (human)): 98.1%; residual activity (STK39 (human)): 93.9%; residual activity (SYK (human)): 98%; residual activity (ULK2 (human)): 83.5%; residual activity (WNK2 (human)): 103%
4 | CCN1/C(=C/C(C)=O)Sc2ccc(OC)cc21 | 108% | 102% | 87.7% | 108% | 94.8% | 86.2% | 25.9% | 109% | 95.8% | 98.3% | 85.7% | 91.6% | 112% | 91% | 87.9% | 104% | 102% | 95.6% | 17.9% | 100% | residual activity (CAMK1D (human)): 105%; residual activity (EPHB4 (human)): 92.4%; residual activity (FES (human)): 101%; residual activity (MAP4K4 (human)): 83.2%; residual activity (MAPK10 (human)): 102%; residual activity (MET (human)): 103%; residual activity (MKNK2 (human)): 93.8%; residual activity (MYLK (human)): 93.7%; residual activity (MYLK2 (human)): 95.1%; residual activity (PRKACA (human)): 98%; residual activity (PRKCD (human)): 88.2%; residual activity (PRKD1 (human)): 78.1%; residual activity (PRKG1 (human)): 82.4% and 87%; residual activity (ROCK1 (human)): 99.3%; residual activity (RPS6KB2 (human)): 107%; residual activity (SGK2 (human)): 93.7%; residual activity (STK33 (human)): 57.4%; residual activity (STK39 (human)): 95.9%; residual activity (SYK (human)): 94.8%; residual activity (WNK2 (human)): 91.1%
5 | O=C1Nc2cc(Br)ccc2/C1=C1/Nc2ccccc2/C1=N\O | 17.1% | 65.8% | 15.4% | 35.9% | 79.1% | 37.5% | 91.9% | 90% | 98.5% | 74.7% | 3.6% | 81% | 82.7% | 69% | 122% | 118% | 96.3% | 86.3% | 96.1% | 98.9% | residual activity (EPHB4 (human)): 78.5%; residual activity (FES (human)): 96%; residual activity (MAPK10 (human)): 97.9%; residual activity (MET (human)): 70%; residual activity (MINK1 (human)): 47.8%; residual activity (MKNK2 (human)): 75.3%; residual activity (MYLK (human)): 45%; residual activity (MYLK2 (human)): 17.6%; residual activity (PRKACA (human)): 106%; residual activity (PRKCD (human)): 103%; residual activity (PRKD1 (human)): 93.6%; residual activity (PRKG1 (human)): 89% and 93.6%; residual activity (ROCK1 (human)): 99%; residual activity (RPS6KB2 (human)): 100%; residual activity (SGK2 (human)): 73%; residual activity (STK33 (human)): 69.4%; residual activity (STK39 (human)): 104%; residual activity (SYK (human)): 45.7%; residual activity (ULK2 (human)): 94%; residual activity (WNK2 (human)): 104%
